Tests used:
[1] = Lipophilicity by reversed-phase thin-layer chromatography (RP-TLC), isopropanol-water mobile phase; assay type: physicochemical; conditions: RP-18F254s TLC, iso-propanol-water 45-65% (v/v); for RM0 (lipophilicity estimation parameter, intercept of RM = RM0 + bC): extrapolated to pure water
Procedure: Some of the parameters resulting from a RP-TLC may be associated to the lipophilic character of the analytes. The retention parameters (RM) are calculated by means of well-known Batte-Smith and Westall Equation (1): RM = log (1/RF − 1) (1)
Generally, the RM values determined by RP-TLC are linearly dependent on the concentration of the organic modifier (C) in the mobile phase Equation (2): RM = RM0 + bC (2) where b and RM0 are, respectively, the slope and the intercept of Equation (2). […] Additionally, it has been stated that not only the RM0, but also the slope, b, as a characteristic of the specific hydrophobic surface area of the compounds, can be used as an estimation of lipophilicity. The advantages of TLC methods consist in the small quantity of compounds needed for the determination, and the rapidity and simplicity of the method. Also, they are inexpensive, rapid and easy to perform.
Chromatography was performed on 20 × 20 cm RP-18F254s TLC precoated silica plates (Merck; Darmstadt, Germany). Solutions (1 mg/mL) of the tested compounds were prepared in iso-propanol, and 3 μL aliquots were spotted in duplicate on the plates by hand, 10 mm from the bottom edge and 20 mm apart. The mobile phases were composed of the iso-propanol-water binary mixtures, with a varying content of organic modifier between 45% and 65% (v/v) in 5% increments, as the study compounds differed considerably in their retention. Chromatography was performed in a normal developing chamber at room temperature, the developing distance being 10 cm. The chromatography chamber was saturated with the mobile phase for 30 min before use. After the development (30–60 min), the plates were air dried at room temperature and examined under a UV lamp (λ = 254 nm), and the RF (retardation factor) values were measured manually by a digital caliper. The experiments were performed in triplicate.

[2] = system: turpentine oil-induced inflammation; design: method as in PMID 23504664; Leukocytes (L, leukocytes count):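 lower leukocyte count means stronger anti-inflammatory effect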; conditions: mean ± SD; cited from earlier work
phagocytes = system: phagocytes; design: method as in PMID 23504664; conditions: turpentine oil-induced inflammation, mean ± SD; cited from earlier work
[3] = system: nitric oxide (NO) synthesis; design: method as in PMID 23504664; unit not given here; conditions: turpentine oil-induced inflammation, mean ± SD; cited from earlier work
oxidative stress = system: oxidative stress; design: method as in PMID 23504664; conditions: turpentine oil-induced inflammation, mean ± SD; cited from earlier work

| Compound | b (slope of RM = RM0 + bC, specific hydrophobic surface area) [1] | RM0 (lipophilicity estimation parameter, intercept of RM = RM0 + bC) [1] | Leukocytes (L, leukocytes count) [2] | PMN (polymorphonuclear leukocytes, differential leucocyte count) [2] [%] | PA (phagocytic activity) (phagocytes) | PI (phagocytosis index) (phagocytes) [%] | NO (nitric oxide synthesis) [3] | OSI (oxidative stress index) (oxidative stress) | TAR (total antioxidant response) (oxidative stress) | TOS (total oxidative status) (oxidative stress) |
| --- | --- | --- | --- | --- | --- | --- | --- | --- | --- | --- |
| C=CCNC(=S)NNC(=O)c1sc(-c2ccccc2)nc1C [Th-7] | −2.484 | 1.195 | 6356.25 ± 66 | 73.2 ± 4.0 | 53.5 ± 3.5 | 20.5 ± 0.9 | 54.355 ± 6.2 | 3.98 ± 3.8 | 1.107 ± 0.003 | 44.073 ± 3.8 |
| Cc1nc(-c2ccccc2)sc1-c1nnc(S)o1 [Th-18] | −1.840 | 0.540 | 4575 ± 805 | 63.7 ± 2.4 | 56 ± 8.6 | 17 ± 1.9 | 43.23 ± 3.9 | 6.98 ± 4.1 | 1.118 ± 0.006 | 78.089 ± 14.1 |
| Cc1nc(-c2ccc(Br)cc2)sc1-c1nnc(S)o1 [Th-20] | −1.283 | 0.393 | 4837.5 ± 1305 | 59.2 ± 5.6 | 20 ± 1.5 | 16 ± 3.0 | 43.288 ± 5.0 | 7.32 ± 3.2 | 1.106 ± 0.003 | 81.022 ± 13.2 |
| Cc1nc(-c2ccccc2)sc1C(=O)NNC(=S)Nc1ccccc1 [Th-1] | −2.627 | 1.369 | 5587.5 ± 455 | 60.4 ± 4.1 | 18.5 ± 1.8 | 21.5 ± 4.6 | 50.479 ± 5.7 | 4.66 ± 2.2 | 1.108 ± 0.003 | 51.622 ± 6.2 |
| C=CCNC(=S)NNC(=O)c1sc(-c2ccc(C)cc2)nc1C [Th-8] | −2.685 | 1.398 | 5718.75 ± 104 | 66.6 ± 1.0 | 21 ± 1.1 | 21.5 ± 0.9 | 48.793 ± 5.5 | 5.03 ± 4.1 | 1.107 ± 0.002 | 55.664 ± 4.2 |
| Cc1nc(-c2ccc(Br)cc2)sc1-c1nnc(S)n1C [Th-14] | −2.659 | 1.630 | 10,172 ± 520 | 75.4 ± 4.5 | 23.5 ± 0.9 | 28 ± 2.1 | 86.04 ± 2.9 | 6.1 ± 4.7 | 1.097 ± 0.006 | 66.876 ± 9.7 |
| Cc1ccc(-c2nc(C)c(C(=O)NNC(=S)Nc3ccccc3)s2)cc1 [Th-2] | −2.853 | 1.595 | 6543 ± 271 | 60.6 ± 3.1 | 22.5 ± 2.8 | 21.5 ± 2.8 | 51.827 ± 6.3 | 5.76 ± 5.3 | 1.099 ± 0.003 | 63.265 ± 5.4 |

— PMC6332165, “Study of the Relationships between the Structure, Lipophilicity and Biological Activity of Some Thiazolyl-carbonyl-thiosemicarbazides and Thiazolyl-azoles” (Molecules, 2015)
